Experimental findings from article PMC12673918, “Design, Synthesis, and Selective Antiproliferative Activity of Indolizine Derivatives as Microtubule Destabilizers” (Archiv Der Pharmazie, 2025) are described below.

Like-named read-outs stand apart in the source and are kept apart here.

One assay deals with T1, human P2X4 receptor (Homo sapiens, UniProt Q99571).
T1 construct: expressed in transfected cells; host or cells: human 1321N1 astrocytoma cells
T1 sequence (Q99571 1-388): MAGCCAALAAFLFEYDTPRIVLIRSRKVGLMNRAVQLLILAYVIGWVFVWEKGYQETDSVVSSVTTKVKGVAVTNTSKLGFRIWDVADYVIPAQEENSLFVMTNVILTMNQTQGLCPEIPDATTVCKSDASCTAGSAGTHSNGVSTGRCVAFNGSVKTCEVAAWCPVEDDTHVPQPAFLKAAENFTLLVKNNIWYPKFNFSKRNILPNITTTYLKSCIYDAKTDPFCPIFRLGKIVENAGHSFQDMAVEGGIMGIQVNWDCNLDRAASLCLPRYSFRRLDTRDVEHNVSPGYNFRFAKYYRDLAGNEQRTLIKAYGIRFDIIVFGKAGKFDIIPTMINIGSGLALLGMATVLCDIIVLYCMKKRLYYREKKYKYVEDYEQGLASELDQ
Kind of assay: Ca2+‐flux assay for the hP2X4 receptor. The assay is classed as cell-based. The settings on record: 10 μM. Here is the method: Human 1321N1 astrocytoma cells stably expressing the human P2X4 receptor (generated in‐house) were cultured in Dulbecco's Modified Eagle Medium supplemented with 9% (v/v) FCS, 1% (v/v) Penicillin/Streptomycin (10000 I.U./mL, 10 mg/mL in 0.9% NaCl) and puromycin (1 µg/mL) as a selection antibiotic at 37°C and 5% CO2. Cells were subcultured in cell culture 75 cm^2 flasks and split every 2–4 days (1:5; 1:6) once confluent.
1321N1 cells stably expressing human P2X4 receptor were seeded into black‐walled 96‐well plates (Thermo Fisher Scientific) at 2.5 × 10^4 cells/well and incubated at 37°C for 24–48 h. All test compounds were diluted in assay buffer solution (SBS: 135 mM NaCl; 5 mM KCl; 1 mM MgCl2.6 H2O; 1.8 mM CaCl2; 5.6 mM D‐Glucose; 10 mM HEPES, 0.1% (m/v) BSA, 0.05% (m/v) gelatine, 2.3 mM probenecid). The culture medium was removed, and 100 µL of 4 μM fluorescent Ca^2+ indicator Calbryte520AM in SBS was added and incubated at 37°C for 1 h. The dye solution was then removed, 100 µL of SBS solution and 50 µL of antagonist dilutions (10^–5–10^–9 M) in SBS were added, and the cells were incubated at room temperature for an extra 30 min. Finally, 50 µL of ATP (at a concentration of the previously determined EC50‐ value) was added by using FlexStation 3 Multi‐Mode Microplate Reader (Molecular Devices, San Jose, CA, USA, Software SoftMax7 Pro). The changes in intracellular Ca^2+ ion concentrations were monitored over 200 s (20 s baseline) by measuring the fluorescence signal at λ ex = 494 nm and λ em = 516 nm ([…] cut‐off). The concentration‐dependent decrease in Ca^2+‐flux, expressed as RFU, was plotted against the concentrations of the compounds.

Another assay concerns the target T2, human P2X7 receptor (Homo sapiens, UniProt Q99572).
T2 construct: host or cells: HEK-293
T2 sequence (Q99572 1-595): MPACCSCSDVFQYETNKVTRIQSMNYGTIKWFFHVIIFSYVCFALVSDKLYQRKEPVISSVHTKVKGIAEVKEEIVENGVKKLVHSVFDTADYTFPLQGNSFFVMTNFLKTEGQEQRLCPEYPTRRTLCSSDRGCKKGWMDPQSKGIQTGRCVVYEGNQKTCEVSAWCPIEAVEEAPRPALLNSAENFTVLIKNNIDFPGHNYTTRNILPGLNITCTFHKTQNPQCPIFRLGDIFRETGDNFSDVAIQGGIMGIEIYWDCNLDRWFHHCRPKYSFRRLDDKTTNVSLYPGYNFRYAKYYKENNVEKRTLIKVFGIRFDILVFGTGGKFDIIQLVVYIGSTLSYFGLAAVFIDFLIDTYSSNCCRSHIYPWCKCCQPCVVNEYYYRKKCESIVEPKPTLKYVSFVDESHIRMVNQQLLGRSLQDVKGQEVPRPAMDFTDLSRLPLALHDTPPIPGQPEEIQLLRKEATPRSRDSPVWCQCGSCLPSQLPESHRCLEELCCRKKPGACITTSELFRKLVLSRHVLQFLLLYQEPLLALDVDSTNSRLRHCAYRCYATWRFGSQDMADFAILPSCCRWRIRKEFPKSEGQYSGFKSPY
Kind of assay: YO‐PRO‐1 dye uptake assay for the P2X7 receptor. It counts as cell-based. Conditions: 10 μM. Here is the method: HEK‐293 cell lines stably expressing human P2X7 receptor (hP2X7R‐HEK‐293, B'SYS GmbH, Witterswil, Switzerland) were maintained in a 50/50 mix of Dulbecco's Modified Eagle Medium and F12 medium (DMEM/F12) supplemented with 9% (v/v) FCS, 1% (v/v) Penicillin/Streptomycin (10000 I.U./mL, 10 mg/mL in 0.9% NaCl) and G418 (100 µg/mL) at 37°C and 5% CO2. Cells were subcultured in cell culture 75 cm^2 flasks and split every 2‐4 days (1:3; 1:6; 1:10) once confluent.
HEK‐293 cell lines stably expressing human P2X7 receptor were seeded into black‐walled Nunc 96‐well optical bottom plates (Thermo Fisher Scientific) at 2.0–4.0 × 10^4 cells/well and incubated at 37°C for 24–48 h. After removing the culture medium, cells were washed with 100 µL wash buffer (280 mM Sucrose; 5.6 mM KCl; 0.5 mM CaCl2; 10 mM D‐Glucose; 10 mM HEPES; 5 mM N‐Methyl‐D‐glucamine (pH 7.4)). Then, 50 µL assay buffer (280 mM Sucrose; 6.4 mM KCl, 10 mM D‐Glucose; 10 mM HEPES; 5.0 mM N‐Methyl‐D‐glucamine (pH 7.4)) and 50 µL of antagonist dilutions (10^–5–10^–9 M) in assay buffer were added, and the cells were incubated at 37°C for 30 min. […] Finally, the uptake of YO‐PRO‐1 dye was recorded in a 9‐point‐well scan by following the fluorescence change using a FlexStation 3 Multi‐Mode Microplate Reader (Molecular Devices, San Jose, CA, USA, Software SoftMax7 Pro, endpoint protocol, well scan with reading pattern “fill scan”, λ ex = 485 nm, λ em = 535 nm). To determine the concentration‐dependent uptake inhibition by antagonists, the YO‐PRO‐1 uptake, expressed as RFU, was plotted against the concentrations of the compounds.

Assay [1] deals with CAL‐27, BT‐20 and HGC‐27 cancer cell lines. The experiment in a line: Resazurin antiproliferative screening, cancer cell line panel. The assay is classed as cell-based. Conditions: 50 μM, 70% inhibition threshold. How it is done: (§1) The tongue squamous cell carcinoma cell line CAL‐27 (ATCC CRL‐2095), breast carcinoma BT‐20 (ATCC HTB‐19), gastric carcinoma HGC‐27 (BCRJ Code 0310), and normal oral fibroblast OHMF (culture of fibroblasts derived from human oral healthy mucosa, approved by the Research Ethics Committee of the University of São Paulo, Campus of Ribeirão Preto, Brazil (with protocol number 049) were cultured in DMEM medium (DMEM, Sigma‐Aldrich, St. Louis, MO, USA) supplemented with 10% fetal bovine serum and a solution of penicillin (100 U/mL) and streptomycin (100 μg/mL). The cultures were maintained in a humidified incubator with 5% CO₂ at 37°C.
(§2) Cell viability was analyzed using the resazurin assay. For this, cells were seeded in 96‐well plates (1 × 10^3 cells per well) and incubated at 37°C with 5% CO₂ overnight for cell adhesion. Subsequently, the cells were treated with different compounds (0–50 µM) for 72 h. After treatment, the medium was replaced with phenol‐free DMEM medium (Sigma‐Aldrich) containing resazurin at a concentration of 44 µM (Sigma‐Aldrich). After incubation for 4 h at 37°C, fluorescence detection was performed (excitation 530/25 nm, emission 590/35 nm) using a microplate fluorimeter (Synergy 2, Biotek). Initial cell growth inhibition assays were performed in triplicate or quadruplicate, while IC50 determinations were conducted in triplicate. Data were plotted, and IC₅₀ values were determined by nonlinear regression using GraphPad Prism software 9.0.
A general note: Alamar Blue is a resazurin reagent that responds to reducing activity.

In another assay the test system is BT‐20 (breast carcinoma). The experiment in a line: Resazurin cell viability assay, BT‐20. It counts as cell-based. Here is the method: as §1, §2
(§3) ^a Cell viability was assessed using the resazurin assay after 72 hours of compound treatment. Fluorescence was measured to estimate % of cellular growth inhibition at 50 µM values, based on triplicate experiments.
(§4) ^b IC50 values were determined using the same resazurin-based assay, with fluorescence measurements performed after 72 hours of treatment. These experiments were carried out in triplicate.

Assay [2] concerns HGC‐27 (gastric carcinoma). Kind of assay: Resazurin cell viability assay, HGC‐27. The assay is classed as cell-based. Here is the method:
as §1, §2, §3, §4

The next assay has as its system CAL‐27 (oral carcinoma). The experiment in a line: Resazurin cell viability assay, CAL‐27. The assay is classed as cell-based. How it is done:
as §1, §2, §3, §4

The next assay has as its system tubulin. The experiment in a line: Tubulin polymerization (inhibition) assay kit. It counts as biochemical. How it is done: To evaluate the effect of the compounds on tubulin polymerization, the Tubulin Polymerization Assay Kit (Cytoskeleton Inc.) was used according to the manufacturer's instructions. Briefly, 5 µL of the compounds (final concentration ranging from 0.1 to 100 µM) were pipetted per well into a pre‐warmed 96‐well black‐bottom plate at 37°C. After 1 min, 55 µL of the tubulin reaction mix (1X Buffer 1, 0.7X Tubulin Glycerol Buffer, 1 mM GTP, and 2 mg/mL tubulin) was added to each well. Next, after 5 s of shaking, fluorescence detection (excitation: 340–360 nm, emission: 410–460 nm) was performed using a microplate fluorimeter. […] Data were plotted, and IC₅₀ values were determined by nonlinear regression using GraphPad Prism software 9.0.
^c Tubulin polymerization was evaluated using a commercial assay kit, following standard procedures. Compounds were incubated with tubulin, and fluorescence was measured over time to generate kinetic curves and determine the maximum polymerization rate (Vmax). These experiments were carried out in duplicate.

Turning to `CCOC(=O)c1cn2cc(OC)ccc2c1C(=O)c1cc(OC)c(OC)c(OC)c1` [Compound 8d, Ethyl [6‐methoxy‐1‐(3,4,5‐trimethoxybenzoyl)indolizine]‐2‐carboxylate], the “% Inhibition of P2X4R at 10 µM compounds’ concentration” value at human P2X4 receptor was determined as 2%. Also, the “% Inhibition of P2X7R at 10 µM compounds’ concentration” value at human P2X7 receptor was -10%. Moreover, the “level of inhibition in the 50 µM screening” value in assay [1] is on record as no more than 70%. Also, the “% Cellular growth inhibition (at 50 µM) BT‐20” value in the assay with BT‐20 (breast carcinoma) (50 µM, 72 h, mean ± SD, n = 3) is given as 55 ± 4.7%. Moreover, in assay [2] (50 µM, 72 h, mean ± SD, n = 3), the “% Cellular growth inhibition (at 50 µM) HGC‐27” value is reported as 44 ± 1.9%. The “% Cellular growth inhibition (at 50 µM) CAL‐27” value with CAL‐27 (oral carcinoma) (50 µM, 72 h, mean ± SD, n = 3) is 66 ± 0.8%.
On to `CC(=O)O[C@H]1C(=O)[C@@]2(C)[C@H]([C@H](OC(=O)c3ccccc3)[C@]3(O)C[C@H](OC(=O)[C@H](O)[C@@H](NC(=O)c4ccccc4)c4ccccc4)C(C)=C1C3(C)C)[C@]1(OC(C)=O)CO[C@@H]1C[C@@H]2O` [Paclitaxel, reference compound], for which the “effect on tubulin polymerization curves (RFU)” value in the assay with tubulin (compounds 5 µM, vs control and paclitaxel) was “promoted rapid and sustained polymerization”. Besides, the IC50 with tubulin (n = 2) was found to be 8.2 µM; in the assay on BT‐20 (breast carcinoma) (Homo sapiens, BT-20, 72 h, mean ± SD, n = 3, read-out: IC50 (nM) BT‐20), 45 ± 7 nM; with BT‐20 (breast carcinoma) (Homo sapiens, BT-20, 72 hours, triplicate, read-out: IC50 (nM, Cellular growth inhibition) BT-20 (supplement)), 2 ± 0.1 nM; in assay [2] (Homo sapiens, HGC-27, 72 h, mean ± SD, n = 3, read-out: IC50 (nM) HGC‐27) it was 48 ± 16 nM; in assay [2] (Homo sapiens, HGC-27, 72 hours, triplicate, read-out: IC50 (nM, Cellular growth inhibition) HGC-27 (supplement)), 4 ± 1.1 nM; with CAL‐27 (oral carcinoma) (Homo sapiens, CAL-27, 72 h, mean ± SD, n = 3, read-out: IC50 (nM) CAL‐27), 3 ± 0.6 nM. In addition, the IC50 in the assay on CAL‐27 (oral carcinoma) (Homo sapiens, CAL-27, 72 hours, triplicate, read-out: IC50 (nM, Cellular growth inhibition) CAL-27 (supplement)) was 5 ± 1.4 nM. For the same compound, the inhibition at 2 µM in the assay on BT‐20 (breast carcinoma) (Homo sapiens, BT-20, 2 μM, 72 h, mean ± SD, read-out: % Cellular growth inhibition BT‐20, positive control) stood at 50 ± 1%; in assay [2] (Homo sapiens, HGC-27, 2 μM, 72 h, mean ± SD, read-out: % Cellular growth inhibition HGC‐27, positive control), 46 ± 1.8%; in the assay on CAL‐27 (oral carcinoma) (Homo sapiens, CAL-27, 2 μM, 72 h, mean ± SD, read-out: % Cellular growth inhibition CAL‐27, positive control), 54 ± 1.2%. For the same compound, the inhibition at 50 µM was 50 ± 1% in the assay on BT‐20 (breast carcinoma) (Homo sapiens, BT-20, 50 µM, 72 hours, triplicate, read-out: % Cellular growth inhibition (at 50 µM) BT-20 (supplement)); 46 ± 1.8% in assay [2] (Homo sapiens, HGC-27, 50 µM, 72 hours, triplicate, read-out: % Cellular growth inhibition (at 50 µM) HGC-27 (supplement)); 54 ± 1.2% in the assay on CAL‐27 (oral carcinoma) (Homo sapiens, CAL-27, 50 µM, 72 hours, triplicate, read-out: % Cellular growth inhibition (at 50 µM) CAL-27 (supplement)).

A word on the IC50: it is the concentration that gives 50% inhibition. For orientation: inhibition means how much of the control response was suppressed.
